Target: HPK1 (Homo sapiens (Human), UniProt Q92918)
Test: HPK1 biochemical enzyme assay (microfluidic mobility shift assay)
Conditions: 1.5 nM HPK1, ATP 1 mM final, 60 min at RT, Caliper EZ Reader; read-out: HPK1 1000UMATP caliper IC50
Protocol: HPK1 biochemical enzyme assay: HPK1 enzyme inhibition was measured using a microfluidic mobility shift assay. […] Test compounds were titrated in ten point curves (top final assay concentration […]), and preincubated with enzyme/substrate mix for 30 min prior to initiation of the reaction by addition of ATP (1 mM final concentration) and substrate (1 μM final concentration; Carna Biosciences) diluted in assay buffer supplemented by MgCl2 (final assay concentration of 5 mM). Following 60 min incubation at RT, the reaction was terminated by addition of 60 µl/well termination buffer (Carna Biosciences) and signal determination using a Caliper EZ Reader (Perkin Elmer, UK). […] The compound numbers correspond to the compound numbers in Table 1.

Sequence of HPK1 (Q92918 whole entry): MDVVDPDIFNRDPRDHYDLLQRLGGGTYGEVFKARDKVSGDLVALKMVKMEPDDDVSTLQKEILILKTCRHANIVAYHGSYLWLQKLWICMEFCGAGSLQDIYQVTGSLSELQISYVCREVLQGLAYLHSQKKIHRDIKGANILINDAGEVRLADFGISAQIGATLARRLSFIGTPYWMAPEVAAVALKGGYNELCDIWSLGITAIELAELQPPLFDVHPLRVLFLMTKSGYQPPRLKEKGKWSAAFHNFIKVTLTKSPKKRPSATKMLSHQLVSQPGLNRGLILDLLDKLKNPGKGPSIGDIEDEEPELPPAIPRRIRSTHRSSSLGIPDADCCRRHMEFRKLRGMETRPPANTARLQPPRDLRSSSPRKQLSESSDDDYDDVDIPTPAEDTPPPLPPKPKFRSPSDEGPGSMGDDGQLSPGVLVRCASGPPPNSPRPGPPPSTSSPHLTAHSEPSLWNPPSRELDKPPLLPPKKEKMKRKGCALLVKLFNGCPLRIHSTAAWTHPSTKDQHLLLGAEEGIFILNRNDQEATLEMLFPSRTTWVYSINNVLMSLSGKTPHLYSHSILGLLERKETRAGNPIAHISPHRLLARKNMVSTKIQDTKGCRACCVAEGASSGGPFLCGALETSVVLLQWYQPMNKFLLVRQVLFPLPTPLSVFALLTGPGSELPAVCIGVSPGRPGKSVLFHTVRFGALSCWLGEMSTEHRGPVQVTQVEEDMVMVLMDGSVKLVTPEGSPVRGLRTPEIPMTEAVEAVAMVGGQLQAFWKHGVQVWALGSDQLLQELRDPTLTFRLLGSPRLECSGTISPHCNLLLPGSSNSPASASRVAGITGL

Substance	IC50
(R)-7-((6- ((dimethylamino)- methyl)-5-(3-(2- hydroxypropan- 2-yl)piperidin-1- yl)pyridin-2- yl)amino)-4-(7- fluoroimidazo [1,2-a]pyridin- 3-yl)isoindolin- 1-one [I-745]	< 100 nM
(S)-7-((6- ((dimethylamino)- methyl)-5-(3-(2- hydroxypropan- 2-yl)piperidin-1- yl)pyridin-2- yl)amino)-4-(7- fluoroimidazo [1,2-a]pyridin- 3-yl)isoindolin- 1-one [I-746]	< 100 nM
